Assay results taken from US7026309B2, “Fused bicyclic pyridine derivative as tachykinin receptor antagonist” (Kyorin Pharmaceutical Co., Ltd., priority 2002, dated 2006).

Experiments:
[1] = target: T1, NK1 receptor (Cavia porcellus, UniProt P30547); assay: Test for NK1 receptor antagonist: substance P concentration-response in isolated guinea pig ileum, Schild analysis; assay type: cell-based; conditions: substance P as agonist, 10 min pretreatment, method of Schild
T1 construct: from tissue; host or cells: isolated guinea pig ileum
Method: (1) Test for NK1 Receptor Antagonist
The method used was according to the method proposed by S. Dion et al. (Dion et al., Life Sciences 41(1987): 2269), to which minor modifications were made.
Guinea pigs were stunned by a blow on the head and were exsanguinated from the carotid artery and ilea were isolated. The ileum was mounted in an organ bath containing Tyrode's solution which was maintained at 32° C. and gased with 95% O2 and 5% CO2. The ileum was subjected to a resting tension of 1-gram and allowed to equilibrate for 20 minutes before the experiment was started. As a control, a concentration-response curve for substance P in the absence of any of test compounds was used. The NK1 receptor antagonist activity of each test compound was determined by a concentration-response curve obtained by pretreating at least three concentrations of the test compound for 10 minutes and subsequently applying substance P in a cumulative manner. The Kb values were determined according to the method of Schild and the results are shown in Table 1 (Schild Brit. J. Pharmacol. 14(1959): 48).
The composition of the Tyrode's solution was as follows: NaCl=136.9, KCl=2.7, CaCl2.2H2O=2.5, MgCl2.6H2O=1.0, NaH2PO4.2H2O=0.4, NaHCO3=11.9, glucose=11.1 (mmol/L).

[2] = tested on: effective bladder capacity; assay: Cystometry test on guinea pigs with cut spinal cord; assay type: in vivo; conditions: guinea pig
Description: (2) Cystometry Test on Guinea Pigs
The method used was according to the method proposed by JS. Peterson et al. (Peterson J S. et al., J. Pharmacol. Methods 21(1989): 231), to which minor modifications were made.
Guinea pigs were anesthetized with halothane and the tenth thoracic spinal cord was cut in each animal. Subsequently, both ureters were ligated and were cut on the kidney-side. Polyethylene catheters were inserted into the bladder to provide an injection pathway for physiological saline and a pathway for the measurement of intravesical pressure. Each animal was restricted in a Ballman cage and was left for more than 2 hours. Subsequently, room-temperature saline was injected through the bladder catheter into the bladder at a rate of 6 mL/hr to conduct a cystometry test. Once the effective bladder capacity was stabilized, a test compound was intravenously administered into the jugular vein. The effective bladder capacity is defined as the volume of saline injected from one urination to the next. The effect of each test compound was determined as the increase in the average bladder volume, which was determined based on the average bladder volume measured 30 minutes prior to the administration of the test compound and the average bladder volume measured every 30 minutes after the administration of the test compound.

T1 sequence (P30547 whole entry): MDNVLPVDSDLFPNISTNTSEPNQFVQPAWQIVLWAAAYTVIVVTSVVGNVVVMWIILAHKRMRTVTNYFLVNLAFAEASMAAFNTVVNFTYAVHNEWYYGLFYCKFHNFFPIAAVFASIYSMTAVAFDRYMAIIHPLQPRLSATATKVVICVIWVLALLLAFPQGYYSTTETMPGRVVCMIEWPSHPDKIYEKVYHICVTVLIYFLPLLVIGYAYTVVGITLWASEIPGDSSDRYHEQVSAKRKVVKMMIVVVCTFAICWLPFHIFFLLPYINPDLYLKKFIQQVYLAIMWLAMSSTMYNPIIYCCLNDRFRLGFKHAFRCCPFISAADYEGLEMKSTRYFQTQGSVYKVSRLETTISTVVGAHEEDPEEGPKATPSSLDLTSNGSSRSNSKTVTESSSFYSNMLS

Kb [1] [nM]	Structure (SMILES)	Increase in bladder capacity (%) ([2]; 0.3 mg/kg i.v.)	Increase in bladder capacity (%) ([2]; 1 mg/kg i.v.)	Increase in bladder capacity (%) ([2]; 3 mg/kg i.v.)
0.0888	CC(=O)N1CCN(c2cc(-c3ccccc3C)c3c(n2)OCCCN(Cc2cc(C(F)(F)F)cc(C(F)(F)F)c2)C3=O)CC1 [Example 1, 9-(4-acetylpiperazine-1-yl)-5-[3,5-bis(trifluoromethyl)benzyl]-7-(2-methylphenyl)-6-oxo-2,3,4,5-tetrahydro-6H-pyrido[2,3-b][1,5]oxazocine]	32.2	–	–
0.0847	CC(=O)N1CCN(c2cc(-c3ccc(F)cc3)c3c(n2)OCCCN(Cc2cc(C(F)(F)F)cc(C(F)(F)F)c2)C3=O)CC1 [Example 2, 9-(4-acetylpiperazine-1-yl)-5-[3,5-bis(trifluoromethyl)benzyl]-7-(4-fluorophenyl)-6-oxo-2,3,4,5-tetrahydro-6H-pyrido[2,3-b][1,5]oxazocine]	–	–	–
0.269	Cc1ccc(-c2c3n(c(=O)c4ncccc24)CC[C@@H](C)CN(Cc2cc(C(F)(F)F)cc(C(F)(F)F)c2)C3=O)cc1 [TAK-637]	12.0	23.8	20.5
0.294	CC(=O)N1CCCN(c2cc(-c3ccccc3C)c3c(n2)OCCCN(Cc2cc(C(F)(F)F)cc(C(F)(F)F)c2)C3=O)CC1 [Example 6, 9-(4-acetylhomopiperazine-1-yl)-5-[3,5-bis(trifluoromethyl)benzyl]-7-(2-methylphenyl)-6-oxo-2,3,4,5-tetrahydro-6H-pyrido[2,3-b][1,5]oxazocine]	–	–	–
